# Assay results taken from publication PMC12449377, “Psychedelic-like effects induced by 2,5-dimethoxy-4-iodoamphetamine, lysergic acid diethylamide, and psilocybin in male and female C57BL/6J mice” (Psychopharmacology, 2025).
# Where two headings read alike, the source gives them in different places.
# Legend:
# [1] = system: C57BL/6J mice; conditions: range over Table 1 and earlier studies; ref Glatfelter et al. [2022b], Sherwood et al. [2020]; cited from earlier work
# [2] = system: C57BL/6J mice; test: Locomotor activity (distance traveled) in mice; format: in vivo, mouse; conditions: for Locomotor Activity (cm) Mean: 30 min
# Description: (§1) At 1–2 weeks prior to the beginning of experiments, mice were habituated to handling and receiving s.c. saline injections. On the day of an experiment, mice were acclimated to the testing room in their home cage for at least 30 min prior to the start of sessions. Prior to each session, mice were weighed, and resting body temperatures were recorded. Mice were then placed into experimental chambers for acclimation. Behavioral testing was carried out in TruScan mouse locomotor arenas equipped with photobeam arrays (Coulbourn Instruments, Holliston, MA, USA) that were modified with cylindrical inserts and transparent flooring to aid in semi-automated HTR detection as previously described (Glatfelter et al. [2022a]). After 5 min of acclimation, basal body temperature was recorded followed by s.c. injection of drug or vehicle, and mice were returned to test chambers for 30 min. Dose ranges for each drug were 0.03–10 mg/kg for DOI, 0.03–10 mg/kg for psilocybin, and 0.003–1 mg/kg for LSD. Mice were randomly assigned to specific doses at the beginning of the experiment and received different doses at each session.
# (§2) During each session, locomotor activity was quantified via photobeam tracking of distance traveled in cm. Overhead GoPro Hero Black 7 video recordings (120 fps, 960p resolution) were analyzed using a commercially available software package from Clever Sys Inc. (Reston, VA, USA) for the measurement of HTR activity. Mouse body temperature was also collected post-session to calculate temperature change values (basal - post session temperature reading).
# (§3) Concentration-response data were fit to a single site non-linear regression model. For the HTR studies, potencies were determined from the ascending limb of the dose-response curves using ED50 potency values from [agonist] vs. response (variable slope, four parameter) least squares fit non-linear regression analyses, whereas efficacy was defined by the top output parameter or Emax from the aforementioned analyses. […] Best-fit values for ED50 and Emax from non-linear regression analyses were compared by extra sum-of-squares F tests. Mean effects for each behavioral endpoint were compared using two-way ANOVA (dose x sex), followed by Sidak’s multiple comparisons post-hoc test. Mean effects for pooled mouse behavioral data were compared via Welch’s ANOVA with Dunnett’s T3 post-hoc test, comparing all doses to saline vehicle controls (0 mg/kg). Alpha was set to 0.05 for all analyses.
# [3] = system: C57BL/6J mice; test: Body temperature change in mice; format: in vivo, mouse; conditions: post 30 min session
# Description: All mice were injected s.c. with temperature transponders (14 × 2 mm, model IPTT-300, Avidity Science, Waterford Wisconsin, USA) under brief isoflurane immobilization, and were given at least 1 week to recover (Glatfelter et al. [2022b]). Mice were single housed post-implant, and for the duration of the experiments, to protect their devices from being removed by cage mates. Temperature was measured noninvasively using a handheld reader which is sensitive to the transponder signals.
# as §1, §2, §3
# [4] = system: C57BL/6J mice; test: Head twitch response (HTR) in mice; format: in vivo, mouse; conditions: for HTR (total events) Mean: 30 min; for ED50: Mus musculus, sc; for HTR ♀ Emax (95% CI) / HTR ♂ Emax (95% CI): top of regression fit
# Description: Each drug was tested using groups of 12 mice per sex (i.e., 24 total mice per drug). Experimental sessions were conducted once every 1–2 weeks for 2 months per drug. Experimental sessions were spaced apart by at least 1 week to minimize the potential for tolerance to drug effects (Canal and Morgan [2012]; Darmani et al. [1990a]; de la Fuente Revenga et al. [2022]). Experiments were conducted during the light phase (1300–1700 local time; lights on = 0700 in a 12/12 light/dark cycle).
# as §1, §2, §3
# [5] = biological target: T1, 5-HT1A (Mus musculus, UniProt Q64264); conditions: previously determined, used to calculate Ki; read-out: Kd of radioligand at 5-HT1A; cited from earlier work
# T1 construct: tissue BioIVT; host or cells: whole C57BL/6 mouse brain minus cerebellum, male and female
# T1 sequence (Q64264 1-421): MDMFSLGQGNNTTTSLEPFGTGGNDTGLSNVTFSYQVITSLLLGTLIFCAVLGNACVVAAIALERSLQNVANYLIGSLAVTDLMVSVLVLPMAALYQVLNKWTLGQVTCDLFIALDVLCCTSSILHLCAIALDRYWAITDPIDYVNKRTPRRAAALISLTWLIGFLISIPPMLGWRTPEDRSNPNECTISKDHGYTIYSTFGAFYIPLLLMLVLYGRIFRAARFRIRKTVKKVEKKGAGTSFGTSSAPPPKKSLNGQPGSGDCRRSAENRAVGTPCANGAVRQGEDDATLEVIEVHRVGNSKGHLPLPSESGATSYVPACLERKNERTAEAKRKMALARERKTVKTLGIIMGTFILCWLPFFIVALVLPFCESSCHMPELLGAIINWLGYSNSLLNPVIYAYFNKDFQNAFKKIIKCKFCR
compound,measurement,setting,value
"CN(C)CCc1c[nH]c2cccc(OP(=O)(O)O)c12 [Psilocybin, 4-phosphoryloxy-N,N-dimethyltryptamine]",ED50 doses inducing HTR in C57BL/6J mice,[1],0.22 to 0.40 mg/kg
same,Locomotor Activity (cm) Mean,"[2]; 0.03 mg/kg s.c., female mice",2480.4 cm
same,Locomotor Activity (cm) Mean,"[2]; 0.03 mg/kg s.c., male mice",2063.8 cm
same,Locomotor Activity (cm) Mean,"[2]; 0.03 mg/kg s.c., pooled sexes",2272 cm
same,Locomotor Activity (cm) Mean,"[2]; 0.1 mg/kg s.c., female mice",2686.5 cm
same,Locomotor Activity (cm) Mean,"[2]; 0.1 mg/kg s.c., male mice",2877.2 cm
same,Locomotor Activity (cm) Mean,"[2]; 0.1 mg/kg s.c., pooled sexes",2782 cm
same,Locomotor Activity (cm) Mean,"[2]; 0.3 mg/kg s.c., female mice",3293.8 cm
same,Locomotor Activity (cm) Mean,"[2]; 0.3 mg/kg s.c., male mice",3064.5 cm
same,Locomotor Activity (cm) Mean,"[2]; 0.3 mg/kg s.c., pooled sexes",3179 cm
same,Locomotor Activity (cm) Mean,"[2]; 1 mg/kg s.c., female mice",2900.9 cm
same,Locomotor Activity (cm) Mean,"[2]; 1 mg/kg s.c., male mice",3532.9 cm
same,Locomotor Activity (cm) Mean,"[2]; 1 mg/kg s.c., pooled sexes",3188 cm
same,Locomotor Activity (cm) Mean,"[2]; 3 mg/kg s.c., female mice",2041.8 cm
same,Locomotor Activity (cm) Mean,"[2]; 3 mg/kg s.c., male mice",2018.9 cm
same,Locomotor Activity (cm) Mean,"[2]; 3 mg/kg s.c., pooled sexes",2029 cm
same,Locomotor activity effect,[2]; 10 mg/kg s.c.,decreased locomotor activity
same,Locomotor Activity (cm) Mean,"[2]; 10 mg/kg s.c., female mice",962.1 cm
same,Locomotor Activity (cm) Mean,"[2]; 10 mg/kg s.c., male mice",741.5 cm
same,Locomotor Activity (cm) Mean,"[2]; 10 mg/kg s.c., pooled sexes",851.8 cm
same,Locomotor activity effect,[2]; 0.3–1 mg/kg s.c.,mild increases in locomotor activity
same,Body Temp Δ (°C) Mean,"[3]; 0.03 mg/kg s.c., female mice",0.2 °C
same,Body Temp Δ (°C) Mean,"[3]; 0.03 mg/kg s.c., male mice",-0.4 °C
same,Body Temp Δ (°C) Mean,"[3]; 0.03 mg/kg s.c., pooled sexes",-0.1 °C
same,Body Temp Δ (°C) Mean,"[3]; 0.1 mg/kg s.c., female mice",0.1 °C
same,Body Temp Δ (°C) Mean,"[3]; 0.1 mg/kg s.c., male mice",0.3 °C
same,Body Temp Δ (°C) Mean,"[3]; 0.1 mg/kg s.c., pooled sexes",0.2 °C
same,Body Temp Δ (°C) Mean,"[3]; 0.3 mg/kg s.c., female mice",0.04 °C
same,Body Temp Δ (°C) Mean,"[3]; 0.3 mg/kg s.c., male mice",0.1 °C
same,Body Temp Δ (°C) Mean,"[3]; 0.3 mg/kg s.c., pooled sexes",0.1 °C
same,Body Temp Δ (°C) Mean,"[3]; 1 mg/kg s.c., female mice",0.0 °C
same,Body Temp Δ (°C) Mean,"[3]; 1 mg/kg s.c., male mice",-1.0 °C
same,Body Temp Δ (°C) Mean,"[3]; 1 mg/kg s.c., pooled sexes",-0.4 °C
same,Body Temp Δ (°C) Mean,"[3]; 3 mg/kg s.c., female mice",-1.0 °C
same,Body Temp Δ (°C) Mean,"[3]; 3 mg/kg s.c., male mice",-1.3 °C
same,Body Temp Δ (°C) Mean,"[3]; 3 mg/kg s.c., pooled sexes",-1.2 °C
same,Body Temp Δ (°C) Mean,"[3]; 10 mg/kg s.c., female mice",-3.3 °C
same,Body Temp Δ (°C) Mean,"[3]; 10 mg/kg s.c., male mice",-4.1 °C
same,Body Temp Δ (°C) Mean,"[3]; 10 mg/kg s.c., pooled sexes",-3.7 °C
same,HTR (total events) Mean,"[4]; 0.03 mg/kg s.c., female mice",8.0 total events
same,HTR (total events) Mean,"[4]; 0.03 mg/kg s.c., male mice",7.6 total events
same,HTR (total events) Mean,"[4]; 0.03 mg/kg s.c., pooled sexes",7.8 total events
same,HTR (total events) Mean,"[4]; 0.1 mg/kg s.c., female mice",11.8 total events
same,HTR (total events) Mean,"[4]; 0.1 mg/kg s.c., male mice",13.0 total events
same,HTR (total events) Mean,"[4]; 0.1 mg/kg s.c., pooled sexes",12.4 total events
same,HTR (total events) Mean,"[4]; 0.3 mg/kg s.c., female mice",27.3 total events
same,HTR (total events) Mean,"[4]; 0.3 mg/kg s.c., male mice",26.8 total events
same,HTR (total events) Mean,"[4]; 0.3 mg/kg s.c., pooled sexes",27.1 total events
same,HTR (total events) Mean,"[4]; 1 mg/kg s.c., female mice",30.2 total events
same,HTR (total events) Mean,"[4]; 1 mg/kg s.c., male mice",39.2 total events
same,HTR (total events) Mean,"[4]; 1 mg/kg s.c., pooled sexes",34.7 total events
same,HTR (total events) Mean,"[4]; 3 mg/kg s.c., female mice",47.2 total events
same,HTR (total events) Mean,"[4]; 3 mg/kg s.c., male mice",29.4 total events
same,HTR (total events) Mean,"[4]; 3 mg/kg s.c., pooled sexes",38.3 total events
same,HTR (total events) Mean,"[4]; 10 mg/kg s.c., female mice",21.8 total events
same,HTR (total events) Mean,"[4]; 10 mg/kg s.c., male mice",18.7 total events
same,HTR (total events) Mean,"[4]; 10 mg/kg s.c., pooled sexes",20.3 total events
same,ED50,"[4]; female mice, ascending limb of dose-response curve, read-out: HTR ♀ ED50 (95% CI)",0.31 mg/kg
same,ED50,"[4]; male mice, ascending limb of dose-response curve, read-out: HTR ♂ ED50 (95% CI)",0.17 mg/kg
same,ED50,"[4]; pooled male and female mice, read-out: HTR ♂+♀ ED50 (95% CI)",0.22 mg/kg
same,Duration of HTR effect in the session,"[4]; peak/active doses, 30 min session",trended to baseline levels by the end of the testing session
same,Time of peak effects on HTR post drug administration,"[4]; s.c., both sexes, 30 min session",5 to 10 min
same,HTR ♀ Emax (95% CI),"[4]; s.c., female mice",43 (35–54) HTR events
same,HTR ♀ Emax (95% CI),"[4]; s.c., female mice, listed as psilocybin",43 HTR events
same,HTR ♂ Emax (95% CI),"[4]; s.c., male mice",35 (30–40) HTR events
same,HTR ♂ Emax (95% CI),"[4]; s.c., male mice, listed as psilocybin",35 HTR events
same,HTR ♂+♀ Emax (95% CI),"[4]; s.c., pooled male and female mice",38 (33–47) HTR events
CCCN(CCC)C1CCc2cccc(O)c2C1 (centres unmarked) [[^3H]8-OH-DPAT],Kd,[5],1.03 nM
